The record followed here is patent US20080274213A1, “Drug for Ameliorating Male Climacteric Disorders” (WAKUNAGA PHARMACEUTICAL CO., LTD., priority 2004, published 2008).

This assay has as its system restraint stress-loaded ddY male mice. Kind of assay: Test on inhibition of reduction in blood testosterone concentration (restraint stress-loaded mice). In kind it is in vivo. As to conditions: tested likewise, dose of the components not given. How it is done: The Codonopsis lanceolata extract obtained in Example 1 was used to investigate inhibitory effect on reduction in blood testosterone concentration caused by aging and stress according to the following procedures: seven-month-old ddY male mice (10 mice per group) were orally given 1 g/kg of the test substance once a day over 2 weeks. On the last administration day, the mice were loaded with restraint stress after 1 hour of test substance administration. The restraint stress loading was performed by wrapping soft wire nets around the mouse bodies and allowing the mice to abstain from food and drink for 16 hours (17:00 to 9:00). Immediately after the termination of the loading, their blood testosterone concentrations were measured. A significant difference test used was the Student's t-test.

Regarding `CC1OC(OC2C(OC(=O)[C@]34CCC(C)(C)C[C@@]3(C)C3=CCC5[C@@]6(C)CC[C@H](OC7OC(C(=O)O)C(O)C(O)C7O)C(C)(C)C6CC[C@@]5(C)[C@]3(C)C[C@H]4O)OCC(O)C2O)C(O)C(O)C1OC1OCC(O)C(OC2OCC(O)C(O)C2O)C1O` (some centres unmarked) [lancemaside-A], the “inhibitory effect on reduction in blood testosterone concentration (isolated components)” value is on record as “the inhibitory effect was also observed”.
With tangshenoside I, the “inhibitory effect on reduction in blood testosterone concentration (isolated components)” value is listed as “the inhibitory effect was also observed”.
